Source: ChEMBL document CHEMBL4354781, “Drug-resistance in Mycobacterium tuberculosis: where we stand” (2019)
Converted amounts (≈) assume the structure as drawn. Numbered stars: 1 amine (or outer) side, 2 acyl side, 3 side chain; on linkers, the order of the positions; unused ones are H or OH. Bridge positions count the residues as written; N and C are the ends. Square brackets hold non-standard residues; d marks the D form. Peptide text beside a SMILES is read from it. * marks the point of attachment. X1 = N=C1NCC[C@H]([C@H](N[*:1])C(=O)[*:2])N1; ΔAla(Z-3-ureido) = NC(=O)N/C=C(\N)C(=O)O; β3hOrn = NCCC[C@H](N)CC(=O)*; Dap = NC[C@H](N)C(=O)O

Experiments:
Type in all cases: functional
[1] = test system: Mycobacterium tuberculosis; experiment: Antitubercular activity against resistant Mycobacterium tuberculosis harboring rrs A1401G mutant after 3 to 6 weeks
[2] = test system: Mycobacterium tuberculosis; experiment: Antitubercular activity against resistant Mycobacterium tuberculosis harboring rrs A1401G mutant
[3] = test system: Mycobacterium tuberculosis; experiment: Antitubercular activity against resistant Mycobacterium tuberculosis harboring embCAB Gly406Asp/Ala mutant
[4] = test system: Mycobacterium tuberculosis; experiment: Antitubercular activity against resistant Mycobacterium tuberculosis harboring embCAB Met306IIe/Val mutant
[5] = test system: Mycobacterium tuberculosis; experiment: Antitubercular activity against resistant Mycobacterium tuberculosis TDR harboring inhA Promoter (c-15 t) mutant
[6] = test system: Mycobacterium tuberculosis; experiment: Antitubercular activity against resistant Mycobacterium tuberculosis Bangladesh isolate harboring inhA Promoter (c-15 t)
[7] = test system: Mycobacterium tuberculosis; experiment: Antitubercular activity against resistant Mycobacterium tuberculosis Bangladesh isolate harboring inhA Promoter (c-15 t)/Ser94Ala mutant
[8] = test system: Mycobacterium tuberculosis; experiment: Antitubercular activity against resistant Mycobacterium tuberculosis TDR harboring inhA Promoter (c-15 t)/IIe21Thr mutant
[9] = test system: Mycobacterium tuberculosis; experiment: Antitubercular activity against resistant Mycobacterium tuberculosis Bangladesh isolate harboring katG Ser315Thr mutant
[10] = test system: Mycobacterium tuberculosis; experiment: Antitubercular activity against resistant Mycobacterium tuberculosis Bangladesh isolate harboring inhA Promoter (c-15 t)/IIe21Thr mutant
[11] = test system: Mycobacterium tuberculosis; experiment: Antitubercular activity against resistant Mycobacterium tuberculosis TDR harboring katG Ser315Thr mutant
[12] = test system: Mycobacterium tuberculosis; experiment: Antitubercular activity against resistant Mycobacterium tuberculosis TDR harboring inhA Promoter (c-15 t)/Ser94Ala mutant
[13] = test system: Mycobacterium tuberculosis; experiment: Antitubercular activity against resistant Mycobacterium tuberculosis harboring rrs G37T mutant after 3 to 6 weeks
[14] = test system: Mycobacterium tuberculosis; experiment: Antitubercular activity against resistant Mycobacterium tuberculosis harboring rrs C1402T mutant after 3 to 6 weeks
[15] = test system: Mycobacterium tuberculosis; experiment: Antitubercular activity against resistant Mycobacterium tuberculosis harboring rrs G1484T/C-12T mutant after 3 to 6 weeks
[16] = test system: Mycobacterium tuberculosis; experiment: Antitubercular activity against resistant Mycobacterium tuberculosis harboring gyrB T511N mutant incubated for 28 days by absolute concentration method
[17] = test system: Mycobacterium tuberculosis; experiment: Antitubercular activity against resistant Mycobacterium tuberculosis harboring gyrA Asp94Asn mutant incubated for 28 days by absolute concentration method
[18] = test system: Mycobacterium tuberculosis; experiment: Antitubercular activity against resistant Mycobacterium tuberculosis harboring gyrA Asp94Gly mutant incubated for 28 days by absolute concentration method
[19] = test system: Mycobacterium tuberculosis; experiment: Antitubercular activity against resistant Mycobacterium tuberculosis harboring gyrA Asp94Tyr mutant incubated for 28 days by absolute concentration method
[20] = test system: Mycobacterium tuberculosis; experiment: Antitubercular activity against resistant Mycobacterium tuberculosis harboring gyrA Asp94His mutant incubated for 28 days by absolute concentration method
[21] = test system: Mycobacterium tuberculosis; experiment: Antitubercular activity against resistant Mycobacterium tuberculosis harboring gyrB Ala90Val mutant incubated for 28 days by absolute concentration method
[22] = test system: Mycobacterium tuberculosis; experiment: Antitubercular activity against resistant Mycobacterium tuberculosis harboring rplC Cys154Arg mutant
[23] = test system: Mycobacterium tuberculosis; experiment: Antitubercular activity against multidrug resistant Mycobacterium tuberculosis
[24] = test system: Mycobacterium tuberculosis; experiment: Antitubercular activity against resistant Mycobacterium tuberculosis harboring pncA D8N mutant incubated for 3 weeks
[25] = test system: Mycobacterium tuberculosis; experiment: Antitubercular activity against resistant Mycobacterium tuberculosis harboring pncA Cys138S mutant incubated for 3 weeks
[26] = test system: Mycobacterium tuberculosis; experiment: Antitubercular activity against resistant Mycobacterium tuberculosis 8 harboring rpoB His526Pro mutant by absolute concentration-microtiter method
[27] = test system: Mycobacterium tuberculosis; experiment: Antitubercular activity against resistant Mycobacterium tuberculosis 3 harboring rpoB Ser531Leu mutant after 4 weeks by absolute concentration-microtiter method
[28] = test system: Mycobacterium tuberculosis; experiment: Antitubercular activity against resistant Mycobacterium tuberculosis 4 harboring rpoB Ser531Leu mutant after 4 weeks by absolute concentration-microtiter method
[29] = test system: Mycobacterium tuberculosis; experiment: Antitubercular activity against resistant Mycobacterium tuberculosis 73 harboring rpoB His526Tyr mutant by absolute concentration-microtiter method
[30] = test system: Mycobacterium tuberculosis; experiment: Antitubercular activity against resistant Mycobacterium tuberculosis 5 harboring rpoB His526Tyr mutant by absolute concentration-microtiter method
[31] = test system: Mycobacterium tuberculosis; experiment: Antitubercular activity against resistant Mycobacterium tuberculosis 1 harboring rpoB Ser531Leu mutant after 4 weeks by absolute concentration-microtiter method
[32] = test system: Mycobacterium tuberculosis; experiment: Antitubercular activity against resistant Mycobacterium tuberculosis 7 harboring rpoB His526Tyr mutant by absolute concentration-microtiter method
[33] = test system: Mycobacterium tuberculosis; experiment: Antitubercular activity against resistant Mycobacterium tuberculosis 75 harboring rpoB Ser531Leu mutant after 4 weeks by absolute concentration-microtiter method
[34] = test system: Mycobacterium tuberculosis; experiment: Antitubercular activity against resistant Mycobacterium tuberculosis 2 harboring rpoB Ser531Leu mutant after 4 weeks by absolute concentration-microtiter method
[35] = test system: Mycobacterium tuberculosis; experiment: Antitubercular activity against resistant Mycobacterium tuberculosis 23 harboring rpoB His526Asp mutant by absolute concentration-microtiter method
[36] = test system: Mycobacterium tuberculosis; experiment: Antitubercular activity against resistant Mycobacterium tuberculosis 76 harboring rpoB Ser531Leu mutant after 4 weeks by absolute concentration-microtiter method
[37] = test system: Mycobacterium tuberculosis; experiment: Antitubercular activity against resistant Mycobacterium tuberculosis 74 harboring rpoB His526Tyr mutant by absolute concentration-microtiter method
[38] = test system: Mycobacterium tuberculosis; experiment: Antitubercular activity against resistant Mycobacterium tuberculosis 21 harboring rpoB Ser531Leu mutant after 4 weeks by absolute concentration-microtiter method
[39] = test system: Mycobacterium tuberculosis; experiment: Antitubercular activity against resistant Mycobacterium tuberculosis 6 harboring rpoB Ser531Leu mutant after 4 weeks by absolute concentration-microtiter method
[40] = test system: Mycobacterium tuberculosis; experiment: Antitubercular activity against resistant Mycobacterium tuberculosis 72 harboring rpoB His526Asp mutant by absolute concentration-microtiter method
[41] = test system: Mycobacterium tuberculosis; experiment: Antitubercular activity against resistant Mycobacterium tuberculosis 26 harboring rpoB Ser531Leu mutant after 4 weeks by absolute concentration-microtiter method

N=C1NCC[C@H]([C@@H]2NC(=O)/C(=C/NC(N)=O)NC(=O)[C@H](CNC(=O)C[C@@H](N)CCCN)NC(=O)[C@H](CO)NC(=O)[C@@H](N)CNC2=O)N1 (H-[Dap]S[Dap](β3hOrn)[ΔAla(Z-3-ureido)][X1]; lactam 1-C)
MIC [1]: >2.5 µg/mL

NCC[C@H](O)C(=O)N[C@@H]1C[C@H](N)[C@@H](O[C@H]2O[C@H](CN)[C@@H](O)[C@H](O)[C@H]2O)[C@H](O)[C@H]1O[C@H]1O[C@H](CO)[C@@H](O)[C@H](N)[C@H]1O [AMIKACIN]
MIC [2]: 4 µg/mL (≈ 6.83 µM)

CC[C@@H](CO)NCCN[C@@H](CC)CO [ETHAMBUTOL]
MIC [3]: 10 to 50 µg/mL
MIC [4]: 10 to 50 µg/mL

NNC(=O)c1ccncc1 [ISONIAZID]
MIC [5]: 0.16 to 0.8 µg/mL
MIC [6]: 0.16 to 0.8 µg/mL (≈ 1.17 to 5.83 µM)
MIC [7]: 3.2 to 12.8 µg/mL
MIC [8]: 3.2 to 12.8 µg/mL
MIC [9]: >19.2 µg/mL
MIC [10]: 3.2 to 12.8 µg/mL
MIC [11]: >19.2 µg/mL
MIC [12]: 3.2 to 12.8 µg/mL

NC[C@H]1O[C@H](O[C@H]2[C@H](O)[C@@H](O[C@H]3O[C@H](CO)[C@@H](O)[C@H](N)[C@H]3O)[C@H](N)C[C@@H]2N)[C@H](O)[C@@H](O)[C@@H]1O [KANAMYCIN]
MIC [13]: >2.5 µg/mL
MIC [14]: >2.5 µg/mL
MIC [15]: >2.5 µg/mL
MIC [1]: >2.5 µg/mL

C[C@H]1COc2c(N3CCN(C)CC3)c(F)cc3c(=O)c(C(=O)O)cn1c23.C[C@H]1COc2c(N3CCN(C)CC3)c(F)cc3c(=O)c(C(=O)O)cn1c23.O [LEVOFLOXACIN]
MIC [16]: >1 µg/mL
MIC [17]: >10 µg/mL
MIC [18]: >10 µg/mL
MIC [19]: >10 µg/mL
MIC [20]: >10 µg/mL
MIC [21]: >1 µg/mL

CC(=O)NC[C@H]1CN(c2ccc(N3CCOCC3)c(F)c2)C(=O)O1 [LINEZOLID]
MIC [22]: >1 µg/mL
MIC [23]: 0.125 to 0.5 µg/mL (≈ 0.371 to 1.48 µM)

NC(=O)c1cnccn1 [PYRAZINAMIDE]
MIC [24]: >=400 - 800 ug ml-1
MIC [25]: >=400 - 800 ug ml-1

CO[C@H]1/C=C/O[C@@]2(C)Oc3c(C)c(O)c4c(O)c(c(/C=N/N5CCN(C)CC5)c(O)c4c3C2=O)NC(=O)/C(C)=C\C=C\[C@H](C)[C@H](O)[C@@H](C)[C@@H](O)[C@@H](C)[C@H](OC(C)=O)[C@@H]1C [RIFAMPIN]
MIC [26]: >=2 - 200 ug ml-1
MIC [27]: >=2 - 200 ug ml-1
MIC [28]: >=2 - 200 ug ml-1
MIC [29]: >=2 - 200 ug ml-1
MIC [30]: >=2 - 200 ug ml-1
MIC [31]: >=2 - 200 ug ml-1
MIC [32]: >=2 - 200 ug ml-1
MIC [33]: >=2 - 200 ug ml-1
MIC [34]: >=2 - 200 ug ml-1
MIC [35]: >=2 - 200 ug ml-1
MIC [36]: >=2 - 200 ug ml-1
MIC [37]: >=2 - 200 ug ml-1
MIC [38]: >=2 - 200 ug ml-1
MIC [39]: >=2 - 200 ug ml-1
MIC [40]: >=2 - 200 ug ml-1
MIC [41]: >=2 - 200 ug ml-1
